Measured values as given in EP4610270A1, “NOVEL ANTIMICROBIAL PEPTIDE AND PHARMACEUTICAL COMPOSITION THEREOF” (Qingdao Sensheng Biopharmaceutical Technology Co., Ltd, priority 2022, dated 2024).

Assays:
[1] = test system: Escherichia coli 25922 (ATCC 25922, E. coli 25922); test: Antimicrobial activity by liquid antimicrobial / turbidimetric method (OD540, microplate reader); format: cell-based; details: E. coli drug sensitive strain; FIG. 1
Procedure: (§1) The materials of Gram negative bacteria and Gram positive bacteria used in the embodiments of the present disclosure include Gram negative bacteria Escherichia coli strain Escherichia coli 25922 (ATCC 25922, E. coli 25922) and Gram positive bacteria Staphylococcus aureus strain Staphylococcus aureus 25923 (ATCC 25923, S. aureus 25923). […] 100 µl of the sample was immediately taken and placed in a microplate reader to measure its OD540, which was recorded as OD 0h. Then the sample was placed in a 37°C constant temperature incubator for cultivation, 100 µl of the sample was taken every 1 h, and the OD540 of each centrifuge tube was measured. Based on the changes in absorbance, the growth of bacteria could be determined, and the antimicrobial activity and minimum inhibitory concentration (MIC) of the polypeptide could be determined. […] 100 µl of the sample was immediately taken and placed in a microplate reader to measure its OD540, which was record as OD 0h. Then the sample was placed in a 37°C constant temperature incubator for cultivation, 100 µl of the sample was taken every 1 h, and the OD540 of each centrifuge tube was measured once.

[2] = test system: Staphylococcus aureus 25923 (ATCC 25923, S. aureus 25923); test: as above; format: cell-based; details: S. aureus drug sensitive strain; FIG. 2
Procedure: as §1

[3] = test system: Human red blood cells (RBC); format: cell-based
Procedure: Human red blood cells (RBC) were used to detect the hemolytic activity of Ac-SH-17. All subjects provided written informed consent. The obtained healthy human blood was placed in an EDTA anticoagulant tube. Red blood cells were collected by centrifugation and suspended in PBS to a concentration of 4% (v/v). An equal portion of 200 µl red blood cell suspension was mixed with 200 µl of Ac-SH-17 solution at different concentrations (12.5, 25, 50, 100, and 200 µg/ml). After incubation at 37°C, the mixture was centrifuged […], and the supernatant was collected and added to a 96-well plate. Red blood cells incubated with PBS, BSA solution (100 µg/ml), or 0.1% Triton X-100 solution were used as blank control, negative control, and positive control, respectively. The absorbance was measured at 540 nm using a microplate reader. Three parallel samples were set up for each experiment, and the experiment was repeated at least three times. The results were analyzed for significant differences by a two-way ANOVA method, with p<0.05 indicating significant differences. Table 3.1 Hemolysis analysis

[4] = test system: RAW264.7 mouse macrophage cell line; test: Anti-inflammatory experiment: NO release after LPS stimulation (Griess); format: cell-based; details: antimicrobial peptide 80 µM; 1 µg/ml LPS stimulation; FIG. 4
From the text: NO is a diffusible and membrane permeable small molecule obtained during the oxidation of L-arginine by NOS. NO was associated with many physiological reactions in organisms. […] But at low concentrations, NO could act as a signal to positively and negatively regulate innate and acquired immunity. Thus, by detecting the concentration of NO released by cells, the inflammatory response of cells could be detected.
The RAW264.7 mouse macrophage cell line was used as the experimental material and cultured in a DMEM high glucose medium containing FBS (10%) and penicillin-streptomycin dual antibody (100 U/ml). The RAW264.7 mouse macrophage cell line was used for experiments when the cell state was stable, the shape was full, and the edges were transparent.
• 1. The culture medium was removed from the cells and gently purged twice with PBS at room temperature to remove excess culture medium. After digestion with 0.25% trypsin for 3 min, the culture bottle was gently tapped to induce cell detachment, and then the culture medium was added to terminate digestion. The culture bottle was repeatedly blown and beaten to make the cells uniform. • 2. […]
4.2 In this experiment, NO was detected by the method provided in the total nitric oxide content determination kit, and improvements were made. […]

[5] = Antisepsis experiment: survival in fecal homogenate sepsis model; format: in vivo, SD rats; details: intraperitoneal 0.5 ml of 80 µM; within 24 h; compared to the model group; FIG. 5
Procedure: Sepsis refers to a systemic inflammatory response syndrome caused by infectious factors. A rat model of intestinal sepsis was established by injecting rat fecal homogenate into the abdominal cavity of model rats, followed by intraperitoneal injection of antimicrobial peptides to observe the survival rate of mice within 10-48 h, in order to evaluate the therapeutic effect of antimicrobial peptides on sepsis in mice.
60 SD rats were randomly divided into 6 groups by a random number table method, i.e., model group 1, model group 2, model group 3, model group 4, model group 5, and blank group, with 10 rats in each group. These 6 groups of rats were weighed and numbered in sequence.
After 1 week of adaptive feeding, fresh formed feces were collected from these 60 SD rats. After weighing the rat feces, an appropriate amount of physiological saline was added to it, and then the mixture was placed in a homogenizer for thorough grinding to prepare a rat feces homogenate at the concentration of 10%. The rat fecal homogenate was centrifuged at 3000 rpm for 5 min to obtain the supernatant, and then a syringe was used to suck out an appropriate amount of the supernatant for later use.
Before modeling, rats in model groups 1-5 were fasted for 12 hours, and then a 10% concentration of rat feces homogenate supernatant was injected intraperitoneally at a dose of 1 ml/200 g. […]

In the case of “Ac-SRMKKWAKIIEKWRKWH-NH2 [Ac-SH-17, Ac-SRMKKWAKIIEKWRKWH-NH2]”, the antimicrobial activity [1] is reported as “exhibited antimicrobial activity”, the antimicrobial activity [2] is reported as “exhibited antimicrobial activity” and the “OD Value” [3] is reported as 0.061±0.013. The hemolytic effect [3] was “does not have significant hemolytic effect”, the “Hemolysis Ratio (%)” value ([3]; red cells of human) was 4.40% and the “inhibition of the release of NO” value [4] was “significantly inhibited the release of NO”. The “release concentration of NO” value [4] was “substantially the same as that of the blank control” and the survival rate [5] was “significantly improved the survival rate”.
